Measurements as given in ChEMBL document CHEMBL1151269, “Caucanolides A-F, unusual antiplasmodial constituents from a colombian collection of the gorgonian coral Pseudopterogorgia bipinnata” (J Nat Prod, 2005).
In brackets after ≈: the same amount, converted by molar mass.

Experiments:
Plasmodium falciparum = assay: Antiplasmodial activity against chloroquine-resistant Plasmodium falciparum W2; assay type: functional, organism-based
MCF7 = assay: Cytotoxicity against human MCF7 cells; assay type: functional, cell-based
CCRF-CEM = assay: Cytotoxicity against human CCRF-CEM cells; assay type: functional, cell-based
NCI-H460 = assay: Cytotoxicity against human NCI-H460 cells; assay type: functional, cell-based
[1] = system: Mycobacterium tuberculosis; assay: Antibacterial activity against Mycobacterium tuberculosis H37Rv at 6.25 ug/ml; assay type: functional
T47D = assay: Cytotoxicity against human T47D cells; assay type: functional, cell-based

Row | Compound | IC50 (Plasmodium falciparum) [µg/mL] | further results
1 | C=C(C)[C@H]([C@@H]1C=C(CCC(C=O)=C(C)C)C(=O)O1)[C@@]1(OC)C=C(C)C(=O)O1 [CAUCANOLIDE A] | 17 (≈ 45.4 µM) | IC50 (MCF7): 7.6 µg/mL (≈ 20.3 µM); IC50 (CCRF-CEM): 25.5 µg/mL (≈ 68.1 µM); IC50 (NCI-H460): 12.5 µg/mL (≈ 33.4 µM); Activity [1]: 21%; IC50 (T47D): 25.8 µg/mL (≈ 68.9 µM)
2 | C=C(C)[C@H]([C@@H]1C=C(CCC(C(=O)/N=C/N(C)C)=C(C)C)C(=O)O1)[C@@]1(OC)C=C(C)C(=O)O1 [CAUCANOLIDE B] | ≥ 50 | –
3 | CO[C@@]1([C@H]2[C@@H](O)C=C(CCC(C=O)=C(C)C)C(=O)OC2(C)C)C=C(C)C(=O)O1 [CAUCANOLIDE C] | ≥ 50 | –
4 | CO[C@]1(/C=C(\C)C[C@@H]2C=C(CCC(C=O)=C(C)C)C(=O)O2)C=C(C)C(=O)O1 [CAUCANOLIDE D] | 15 (≈ 40.1 µM) | –
5 | CO[C@@](C)(/C=C1/C=C(C)C(=O)O1)C[C@@H]1C=C(CCC(C=O)=C(C)C)C(=O)O1 [CAUCANOLIDE E] | ≥ 50 | –
6 | CO[C@](C)(/C=C1/C=C(C)C(=O)O1)C[C@@H]1C=C(CCC(C=O)=C(C)C)C(=O)O1 [CAUCANOLIDE F] | ≥ 50 | –
